Counter-ions that a name gives are not always drawn.

The target in the assay is T1, human histamine H4 receptor (Homo sapiens, UniProt Q9H3N8).
T1 construct: expressed in transfected cells; host or cells: SK-N-MC cells or COS7 cells, transiently transfected; membranes prepared
T1 sequence (Q9H3N8 whole entry): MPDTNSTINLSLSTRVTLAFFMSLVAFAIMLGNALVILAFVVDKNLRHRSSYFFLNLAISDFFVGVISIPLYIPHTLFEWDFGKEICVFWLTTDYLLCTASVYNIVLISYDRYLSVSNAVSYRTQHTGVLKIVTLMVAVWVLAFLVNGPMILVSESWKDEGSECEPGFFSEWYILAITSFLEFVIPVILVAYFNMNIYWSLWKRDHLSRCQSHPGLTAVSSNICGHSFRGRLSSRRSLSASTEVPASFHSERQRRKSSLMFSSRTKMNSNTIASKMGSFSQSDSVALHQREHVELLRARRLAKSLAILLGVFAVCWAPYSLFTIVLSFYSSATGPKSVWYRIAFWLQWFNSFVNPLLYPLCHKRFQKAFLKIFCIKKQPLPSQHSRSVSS
The assay is described as follows: Binding Assay on Recombinant Human Histamine H4 Receptor (3H-histamine competition, membranes of transfected SK-N-MC or COS7 cells). Further: ligand 5 nM. The method, then: SK-N-MC cells or COS7 cells were transiently transfected with pH4R and grown in 150 cm^2 tissue culture dishes. Cells were washed with saline solution, scraped with a cell scraper and collected by centrifugation (1000 rpm, 5 min). Cell membranes were prepared by homogenization of the cell pellet in 20 mM Tris-HCl with a polytron tissue homogenizer for 10 sec at high speed. Homogenate was centrifuged at 1000 rpm for 5 min at 4° C. The supernatant was then collected and centrifuged at 20,000×g for 25 min at 4° C. The final pellet was resuspended in 50 mM Tris-HCl. […] Incubation occurred at room temperature for 45 min. Membranes were harvested by rapid filtration over Whatman GF/C filters and washed 4 times with ice-cold 50 mM Tris HCl. Filters were then dried, mixed with scintillant and counted for radioactivity.
As for `Cc1cc(C)c2nc(-c3ccc(N(C)CCCC4CCN(C)CC4)nc3)[nH]c2c1` [Example 1, [5-(4,6-Dimethyl-1H-benzoimidazol-2-yl)-pyridin-2-yl]-methyl-[3-(1-methyl-piperidin-4-yl)-propyl]-amine], the inhibition constant (Ki) came to 12 nM.
`Cc1c(F)ccc2[nH]c(-c3ccc(N(C)CCCC4CCN(C)CC4)nc3)nc12` [Example 2, [5-(5-Fluoro-4-methyl-1H-benzoimidazol-2-yl)-pyridin-2-yl]-methyl-[3-(1-methyl-piperidin-4-yl)-propyl]-amine]: the Ki was 15 nM.
In the case of `CN1CCC(CCCNc2ccc(-c3nc4cc(Cl)ccc4[nH]3)cn2)CC1` [Example 3, [5-(5-Chloro-1H-benzoimidazol-2-yl)-pyridin-2-yl]-[3-(1-methyl-piperidin-4-yl)-propyl]-amine] it was 6 nM.
In the case of `CN1CCC(CCCNc2ccc(-c3nc4cc(C(C)(C)C)ccc4[nH]3)cn2)CC1` [Example 4, [5-(5-tert-Butyl-1H-benzoimidazol-2-yl)-pyridin-2-yl]-[3-(1-methyl-piperidin-4-yl)-propyl]-amine] it was 9 nM; in that of `Cc1c(F)ccc2[nH]c(-c3ccc(NCCCC4CCN(C)CC4)nc3)nc12` [Example 5, [5-(5-Fluoro-4-methyl-1H-benzoimidazol-2-yl)-pyridin-2-yl]-[3-(1-methyl-piperidin-4-yl)-propyl]-amine], 33 nM; in that of `Cc1cc(Cl)cc2[nH]c(-c3ccc(NCCCC4CCN(C)CC4)nc3)nc12` [Example 6, [5-(6-Chloro-4-methyl-1H-benzoimidazol-2-yl)-pyridin-2-yl]-[3-(1-methyl-piperidin-4-yl)-propyl]-amine], 16 nM.
In the case of `COc1ccc2[nH]c(-c3ccc(NCCCC4CCN(C)CC4)nc3)nc2c1` [Example 7, [5-(5-Methoxy-1H-benzoimidazol-2-yl)-pyridin-2-yl]-[3-(1-methyl-piperidin-4-yl)-propyl]-amine] it was 500 nM; in that of `COC(=O)c1ccc2[nH]c(-c3ccc(NCCCC4CCN(C)CC4)nc3)nc2c1` [Example 8, 2-{6-[3-(1-Methyl-piperidin-4-yl)-propylamino]-pyridin-3-yl}-1H-benzoimidazole-5-carboxylic acid methyl ester], 1590 nM; in that of `Cc1cc(Cl)cc2[nH]c(-c3ccc(NCCCN4CCN(C)CC4)nc3)nc12` [Example 9, [5-(6-Chloro-4-methyl-1H-benzoimidazol-2-yl)-pyridin-2-yl]-[3-(4-methyl-piperazin-1-yl)-propyl]-amine], 350 nM.
Regarding `Cc1c(F)ccc2[nH]c(-c3ccc(NCCCN4CCN(C)CC4)nc3)nc12` [Example 10, [5-(5-Fluoro-4-methyl-1H-benzoimidazol-2-yl)-pyridin-2-yl]-[3-(4-methyl-piperazin-1-yl)-propyl]-amine], the inhibitory constant (Ki) came out at 930 nM.
In the case of `Cc1cc(-c2nc3c(C)c(F)ccc3[nH]2)cnc1NCCCC1CCN(C)CC1` [Example 11, [5-(5-Fluoro-4-methyl-1H-benzoimidazol-2-yl)-3-methyl-pyridin-2-yl]-[3-(1-methyl-piperidin-4-yl)-propyl]-amine] it was 22 nM; in that of `Cc1cc(-c2nc3c(F)c(F)ccc3[nH]2)cnc1NCCCC1CCN(C)CC1` [Example 12, [5-(4,5-Difluoro-1H-benzoimidazol-2-yl)-3-methyl-pyridin-2-yl]-[3-(1-methyl-piperidin-4-yl)-propyl]-amine], 78 nM.
In the case of `Cc1c(F)ccc2[nH]c(-c3ccc(N(CCCC4CCN(C)CC4)C(C)C)nc3)nc12` [Example 13, [5-(5-Fluoro-4-methyl-1H-benzoimidazol-2-yl)-pyridin-2-yl]-isopropyl-[3-(1-methyl-piperidin-4-yl)-propyl]-amine] it was 730 nM.
As for `Cc1cc(C)c2nc(-c3ccnc(N(C)CCCCC4CCN(C)CC4)c3)[nH]c2c1` [Example 14, [4-(4,6-Dimethyl-1H-benzoimidazol-2-yl)-pyridin-2-yl]-methyl-[4-(1-methyl-piperidin-4-yl)-butyl]-amine hydrochloride salt], the figure is 40 nM.
For `Cc1cccc2[nH]c(-c3ccnc(NCCCCC4CCN(C)CC4)c3)nc12` [Example 15, [4-(4-Methyl-1H-benzoimidazol-2-yl)-pyridin-2-yl]-[4-(1-methyl-piperidin-4-yl)-butyl]-amine], the Ki worked out at 1 nM.
As for `Cc1c(F)ccc2[nH]c(-c3ccnc(NCCCCC4CCN(C)CC4)c3)nc12` [Example 16, [4-(5-Fluoro-4-methyl-1H-benzoimidzol-2-yl)-pyridin-2-yl]-[4-(1-methyl-piperidin-4-yl)-butyl]-amine], the figure is 2 nM.
As for `Cc1cc(Cl)cc2[nH]c(-c3ccnc(NCCCCC4CCN(C)CC4)c3)nc12` [Example 17, [4-(6-Chloro-4-methyl-1H-benzoimidazol-2-yl)-pyridin-2-yl]-[4-(1-methyl-piperidin-4-yl)-butyl]-amine], the figure is 8 nM.
As for `Cc1cc(C)c2nc(-c3ccnc(NCCCCC4CCN(C)CC4)c3)[nH]c2c1` [Example 18, [4-(4,6-Dimethyl-1H-benzoimidazol-2-yl)-pyridin-2-yl]-[4-(1-methyl-piperidin-4-yl)-butyl]-amine], the Ki stood at 2 nM.
In the case of `Cc1c(F)ccc2[nH]c(-c3ccnc(NCCCCN4CCCN(C)CC4)c3)nc12` [Example 19, [4-(5-Fluoro-4-methyl-1H-benzoimidazol-2-yl)-pyridin-2-yl]-[4-(4-methyl-[1,4]diazepan-1-yl)-butyl]-amine] it was 5 nM; in that of `Cc1c(F)ccc2[nH]c(-c3ccnc(NC(=O)CCCC4CCN(C)CC4)c3)nc12` [Example 20, N-[4-(5-Fluoro-4-methyl-1H-benzoimidazol-2-yl)-pyridin-2-yl]-4-(1-methyl-piperidin-4-yl)-butyramide], 250 nM; in that of `Cc1cc(C)c2nc(-c3ccnc(NC(=O)CCCC4CCN(C)CC4)c3)[nH]c2c1` [Example 21, N-[4-(4,6-Dimethyl-1H-benzoimidazol-2-yl)-pyridin-2-yl]-4-(1-methyl-piperidin-4-yl)-butyramide], 290 nM.
In the case of `COC(=O)c1ccc2[nH]c(-c3ccc(N(C)CCCC4CCN(C)CC4)nc3)nc2c1` [Example 22, 2-(6-{Methyl-[3-(1-methyl-piperidin-4-yl)-propyl]-amino}-pyridin-3-yl)-1H-benzoimidazole-5-carboxylic acid methyl ester] it was 420 nM; in that of `Cc1cccc2[nH]c(-c3ccc(NCCCC4CCN(C)CC4)nc3)nc12` [Example 23, [5-(4-Methyl-1H-benzoimidazol-2-yl)-pyridin-2-yl]-[3-(1-methyl-piperidin-4-yl)-propyl]-amine], 240 nM; in that of `Cc1cc(C)c2nc(-c3ccc(NCCCC4CCN(C)CC4)nc3)[nH]c2c1` [Example 24, [5-(4,6-Dimethyl-1H-benzoimidazol-2-yl)-pyridin-2-yl]-[3-(1-methyl-piperidin-4-yl)-propyl]-amine], 23 nM.
In the case of `Cc1ccc2[nH]c(-c3ccc(NCCCC4CCN(C)CC4)nc3)nc2c1C` [Example 25, [5-(4,5-Dimethyl-1H-benzoimidazol-2-yl)-pyridin-2-yl]-[3-(1-methyl-piperidin-4-yl)-propyl]-amine] it was 58 nM; in that of `CN1CCC(CCCNc2ccc(-c3nc4cc(Cl)c(F)cc4[nH]3)cn2)CC1` [Example 26, [5-(5-Chloro-6-fluoro-1H-benzoimidazol-2-yl)-pyridin-2-yl]-[3-(1-methyl-piperidin-4-yl)-propyl]-amine], 13 nM; in that of `Cc1ccc2[nH]c(-c3ccc(N(C)CCCC4CCN(C)CC4)nc3)nc2c1C` [Example 27, [5-(4,5-Dimethyl-1H-benzoimidazol-2-yl)-pyridin-2-yl]-methyl-[3-(1-methyl-piperidin-4-yl)-propyl]-amine], 72 nM.
On to `CN1CCC(CCCN(C)c2ccc(-c3nc4c(F)c(F)ccc4[nH]3)cn2)CC1` [Example 28, [5-(4,5-Difluoro-1H-benzoimidazol-2-yl)-pyridin-2-yl]-methyl-[3-(1-methyl-piperidin-4-yl)-propyl]-amine], for which the Ki stood at 37 nM.
As for `CN1CCC(CCCNc2ccc(-c3nc4c(F)c(F)ccc4[nH]3)cn2)CC1` [Example 29, [5-(4,5-Difluoro-1H-benzoimidazol-2-yl)-pyridin-2-yl]-[3-(1-methyl-piperidin-4-yl)-propyl]-amine], the figure is 89 nM; as for `CN1CCC(CCCNc2ccc(-c3nc4cc(C(=O)c5ccccc5)ccc4[nH]3)cn2)CC1` [Example 30, (2-{6-[3-(1-Methyl-piperidin-4-yl)-propylamino]-pyridin-3-yl}-1H-benzoimidazol-5-yl)-phenyl-methanone], 520 nM.
As for `CN1CCC(CCCNc2ccc(-c3nc4c(Cl)cccc4[nH]3)cn2)CC1` [Example 31, [5-(4-Chloro-1H-benzoimidazol-2-yl)-pyridin-2-yl]-[3-(1-methyl-piperidin-4-yl)-propyl]-amine], the figure is 2670 nM.
In the case of `CN1CCC(CCCNc2ccc(-c3nc4cc(F)ccc4[nH]3)cn2)CC1` [Example 32, [5-(5-Fluoro-1H-benzoimidazol-2-yl)-pyridin-2-yl]-[3-(1-methyl-piperidin-4-yl)-propyl]-amine] it was 41 nM; in that of `Cc1cc(C)c2nc(-c3ccc(NCCCN4CCN(C)CC4)nc3)[nH]c2c1` [Example 33, [5-(4,6-Dimethyl-1H-benzoimidazol-2-yl)-pyridin-2-yl]-[3-(4-methyl-piperazin-1-yl)-propyl]-amine], 680 nM; in that of `CC(C)N(CCCN1CCN(C)CC1)c1ccc(-c2nc3cc(Cl)ccc3[nH]2)cn1` [Example 34, [5-(5-Chloro-1H-benzoimidazol-2-yl)-pyridin-2-yl]-isopropyl-[3-(4-methyl-piperazin-1-yl)-propyl]-amine], 570 nM.

As a reminder, the Ki is the dissociation constant of the complex between target and ligand, obtained from inhibition or displacement.

For the origin of these results see patent US7589087B2 (Janssen Pharmaceutica, N.V., priority 2006, dated 2009).
